Type in all cases: cell-based
Experiment [1] relates to rat ventricular myocytes. Description: Action potential recording on isolated rat ventricular myocytes. Particulars: isoproterenol 10 nM, comparing with control. How it is done: (§1) The Tyrode’s solution contained (mM): 126 NaCl, 5.4 KCl, 1.8 CaCl2, 1 MgCl2, 0.33 NaH2PO4, 10 HEPES and 10 glucose, pH 7.4 (adjusted with NaOH). The Ca^2+-free Tyrode’s solution was prepared by removing CaCl2 from the Tyrode’s solution. The Kreb’s solution used for cell storage contained (mM): 70 glutamic acid, 30 KCl, 15 taurine, 0.5 MgCl2, 10 KH2PO4, 0.5 EGTA, 10 HEPES, 10 glucose, and 1% albumin, pH 7.4 (adjusted with KOH). The enzyme solution used for the rat cardiomyocyte isolation contained 0.08 g/L collagenase (type II) and 1.0 g/L BSA in Kreb’s solution. For action potential recording on cardiomyocyte, the pipette solution contained (mM): 100 potassium aspartate, 30 KCl, 1 MgCl2, 5 Mg-ATP, 5 EGTA, 5 HEPES, pH 7.3 (adjusted with KOH); the Tyrode’s solution was used as the standard bath solution. For whole-cell recording of IKs on myocytes, the pipette solution contained (mM): 125 potassium aspartate, 20 KCl, 1 MgCl2, 5 Mg-ATP, 10 EGTA, 5 HEPES, pH 7.3 (adjusted with KOH); the bath solution contained (mM): 132 NaCl, 4 KCl, 1.8 CaCl2, 1.2 MgCl2, 10 HEPES, 5 glucose, pH 7.4 (adjusted with NaOH). 3 μM nifedipine and 5 μM E-4031 were used to block the calcium current and IKr, respectively. For whole-cell recording on HEK-293 cells, the pipette solution contained (mM): 140 KCl, 2 MgCl2, 10 HEPES, 0.1 EGTA, 4 K2-ATP, pH 7.3 (adjusted with KOH); the bath solution contained (mM): 120 NaCl, 5 KCl, 1.5 CaCl2, 1 MgCl2, 10 HEPES, 10 glucose, pH 7.4 (adjusted with NaOH). For single-channel recording, the pipette solution (extracellular) contained (mM): 145 KCl, 10 HEPES, 10 glucose, pH 7.4 (adjusted with KOH); the bath solution (intracellular) contained (mM): 145 KCl, 1.2 MgCl2, 10 HEPES, 0.1 EGTA, pH 7.38 (adjusted with KOH).
Single ventricular myocytes were isolated from adult rat hearts via enzymatic dissociation as previously described. Briefly, the rats were anesthetised with 25% chloral hydrate (0.1 g/100 g). Their hearts were excised rapidly and retrogradely perfused on a Langendorff apparatus with a Ca^2+-free Tyrode’s solution for 5 min before the perfusate was switched to an enzymatic solution for 10–20 min. The perfusate was finally changed to Kreb’s solution for 5 min. The perfusates were bubbled with 95% O2 + 5% CO2 and maintained at 37 °C. The ventricles w ere cut into small chunks and gently agitated in Kreb’s solution. The cells were filtered through nylon mesh (pore size 200 μm) and stored in Kreb’s solution at 4 °C.
Action potentials were elicited at 1 Hz by 2 ms current pulses applied using the patch pipette.
(§2) Cell suspensions were transferred into a chamber on the stage of a Nikon Eclipse Ti inverted microscope (Tokyo, Japan). The whole-cell recordings were performed using isolated single ventricular myocytes. Patch electrodes were pulled from a horizontal microelectrode puller (P-1000, Sutter Instrument Co, USA) and fire polished to final tip resistance of 4.0–8.0 MΩ when filled with internal solutions. Signals were amplified with an Axopatch 200B amplifier (Axon Instruments, USA) and filtered at 1 kHz. The pCLAMP 9.0 software was used to generate current and voltage clamp protocols, acquire data, and analyse the current traces. The whole-cell series resistance was compensated to more than 80%. All of the experiments were performed at room temperature (22 ± 1 °C). The whole-cell IK1 was elicited by a ramp voltage protocol from −140 to + 40 mV in 1 s, or at a 0 mV holding potential to test potentials from −140 to + 40 mV in 10 mV increments. The IK1 was calculated as the difference between the peak inward current and the holding current level. The whole-cell Kv7.1/IKs were elicited from a −30 mV holding potential to test potentials from −80 to + 40 mV in 10 mV increments.

The target of experiment [2] is T1, Kv7.1 (Homo sapiens, UniProt P51787).
T1 construct: expressed in transfected cells; host or cells: HEK293
Description: Whole-cell patch clamp of Kv7.1 currents (voltage steps) in transfected HEK293 cells. Particulars: activator alone, HEK293. How it is done: as §1, §2
(§3) Human Kir2.1 cDNA, Kir2.3 cDNA, Kv7.1 cDNA and KCNE1 cDNA, was cloned in Human Embryonic Kidney 293 cells, respectively. In some cases, Kv7.1 cDNA and KCNE1 cDNA were simultaneously cloned in Human Embryonic Kidney 293 cells.
On the technique in general: In patch-clamp work, channel activity is measured electrically.

The target of experiment [3] is T1, Kv7.1. Kind of experiment: Single-channel inside-out patch clamp recording of Kv7.1. Particulars: 293B applied after puerarin 100 μM. How it is done: as §1, with “3 μM nifedipine and 5 μM E-4031 were used to block the calcium current and IKr, respectively. For whole-cell recording on HEK-293 cells, the pipette solution contained (mM): 140 KCl, 2 MgCl2, 10 HEPES, 0.1 EGTA, 4 K2-ATP, pH 7.3 (adjusted with KOH); the bath solution contained (mM): 120 NaCl, 5 KCl, 1.5 CaCl2, 1 MgCl2, 10 HEPES, 10 glucose, pH 7.4 (adjusted with NaOH). For single-channel recording, the pipette solution (extracellular) contained (mM): 145 KCl, 10 HEPES, 10 glucose, pH 7.4 (adjusted with KOH); the bath solution (intracellular) contained (mM): 145 KCl, 1.2 MgCl2, 10 HEPES, 0.1 EGTA, pH 7.38 (adjusted with KOH).” left out
(§4) Single-channel activity was recorded at a series of holding levels ranging from 10 mV of 50 mV. […] Single-channel events were listed and analysed by pclampfit 9.0 (single-channel search-in-analyse function). […]

The target of experiment [4] is T2, IKs channel (Homo sapiens, UniProt P51787).
T2 construct: expressed in transfected cells; host or cells: HEK293
Kind of experiment: Single-channel inside-out patch clamp recording of IKs. Conditions: 293B applied after puerarin 100 μM. How it is done:
as §1, with “3 μM nifedipine and 5 μM E-4031 were used to block the calcium current and IKr, respectively. For whole-cell recording on HEK-293 cells, the pipette solution contained (mM): 140 KCl, 2 MgCl2, 10 HEPES, 0.1 EGTA, 4 K2-ATP, pH 7.3 (adjusted with KOH); the bath solution contained (mM): 120 NaCl, 5 KCl, 1.5 CaCl2, 1 MgCl2, 10 HEPES, 10 glucose, pH 7.4 (adjusted with NaOH). For single-channel recording, the pipette solution (extracellular) contained (mM): 145 KCl, 10 HEPES, 10 glucose, pH 7.4 (adjusted with KOH); the bath solution (intracellular) contained (mM): 145 KCl, 1.2 MgCl2, 10 HEPES, 0.1 EGTA, pH 7.38 (adjusted with KOH).” left out
as §4

Experiment [5] addresses T3, IKs (Rattus norvegicus, UniProt Q9Z0N7).
T3 construct: endogenous in cells; host or cells: isolated adult rat ventricular myocytes
Kind of experiment: Whole-cell recording of IKs on rat ventricular myocytes. Particulars: forskolin alone. How it is done: as §1, with “3 μM nifedipine and 5 μM E-4031 were used to block the calcium current and IKr, respectively. For whole-cell recording on HEK-293 cells, the pipette solution contained (mM): 140 KCl, 2 MgCl2, 10 HEPES, 0.1 EGTA, 4 K2-ATP, pH 7.3 (adjusted with KOH); the bath solution contained (mM): 120 NaCl, 5 KCl, 1.5 CaCl2, 1 MgCl2, 10 HEPES, 10 glucose, pH 7.4 (adjusted with NaOH). For single-channel recording, the pipette solution (extracellular) contained (mM): 145 KCl, 10 HEPES, 10 glucose, pH 7.4 (adjusted with KOH); the bath solution (intracellular) contained (mM): 145 KCl, 1.2 MgCl2, 10 HEPES, 0.1 EGTA, pH 7.38 (adjusted with KOH).” left out
Cell suspensions were transferred into a chamber on the stage of a Nikon Eclipse Ti inverted microscope (Tokyo, Japan). […] The IK1 was calculated as the difference between the peak inward current and the holding current level. […]

The target of experiment [6] is T4, IKs channels (KCNQ and KCNE) (Homo sapiens, UniProt P51787).
T4 construct: expressed in transfected cells; host or cells: HEK293
Kind of experiment: Whole-cell patch clamp of IKs currents (Kv7.1 + KCNE1, voltage steps) in transfected HEK293 cells. As for the experimental part:
as §1, §2, §3

Take `CC(C)NCC(O)c1ccc(O)c(O)c1` (centres unmarked) [Isoproterenol]: in experiment [1], the “effect on APD of rat ventricles” value is on record as “significantly shortened”. Further, the “effect on Kv7.1 current” value in experiment [2] is recorded as “significantly enhanced”.

For `CCS(=O)(=O)N(C)[C@H]1c2cc(C#N)ccc2OC(C)(C)[C@@H]1O` [293B], in experiment [3], the “open probability of Kv7.1 channel” value was “further abolished”. Further, in experiment [4], the “open probability of IKs channel” value was “further abolished”.

For the molecule `C=C[C@@]1(C)CC(=O)[C@]2(O)[C@@]3(C)[C@@H](O)CCC(C)(C)[C@@H]3[C@H](O)[C@H](OC(C)=O)[C@@]2(C)O1` [Forskolin], the “effect on IKs current in rat cardiac myocytes” value in experiment [5] is “significantly enhanced”. The “effect on Kv7.1 current” value in experiment [2] is “significantly enhanced”.

A word on the EC50: it is the midpoint of the concentration-response curve. As to `O=C(O)[C@H]1O[C@@H](Oc2cc3oc(-c4ccccc4)cc(=O)c3c(O)c2O)[C@H](O)[C@@H](O)[C@@H]1O` [Baicalin], in experiment [6] (HEK293), the “maximal increased effect upon IKs currents” value was found to be 57.32 ± 3.07% and the “saturation dosage, enhancement of IKs” value is on record as 1 mM. The half-maximal effective concentration (EC50) in experiment [6] (at the peak currents, non-linear Hill fit, read-out: EC50, enhancement of IKs currents) was 138 µM. Moreover, the “Hill coefficient, enhancement of IKs” value in experiment [6] (non-linear Hill fit) stood at 0.993.

As for “8-Bromoadenosine-3′, 5′-cyclic monophosphorothioate [8-Br-cAMP]”, in experiment [2], the “effect on Kv7.1 current” value is recorded as “significantly enhanced”.

The values are drawn from PMC5071873, “The Effects of Puerarin on Rat Ventricular Myocytes and the Potential Mechanism” (Scientific Reports, 2016).
